Source: US20110319392A1, “Thiazole Sulfonamide And Oxazole Sulfonamide Kinase Inhibitors” (priority 2009, published 2011)

Experiments:
[1] = molecular target: T1, ErbB2 (Homo sapiens, UniProt P04626); assay: ErbB-2 substrate phosphorylation assay (HTRF); assay type: biochemical
T1 construct: made in house; host or cells: baculovirus expression system
Protocol: (§1) Compounds of the present invention were tested for EGFR and ErbB-2 protein tyrosine kinase inhibitory activity in substrate phosphorylation assays using enzymes purified from a baculovirus expression system. Reagent production was conducted essentially as described in Brignola, P. S., et al, (2002) J. Biol. Chem. 277(2):1576-1585.
(§2) The method measures the ability of the isolated enzyme to catalyse the transfer of the gamma-phosphate from ATP onto the tyrosine residue of a biotinylated synthetic peptide referenced “Peptide C” in Brignola, P. S., et al, (2002) J. Biol. Chem. 277(2):1576-1585. The extent of tyrosine phosphorylation was measured using an anti-phosphotyrosine antibody, and quantified by homogenous time-resolved fluorescence (HTRF).
(§3) Reactions were performed in black 384-well polystyrene flat-bottom plates in a final volume of 20 μL. Assays were performed by adding 10 μL of each of the following solutions, Substrate Mix and Enzyme Mix: The Substrate Mix contained 100 mM 3-[N-morpholino]propanesulfonic acid (MOPS) (pH 7.5), 2 mM MnCl2, 20 μM ATP, 0.01% Tween-20, 0.1 mg/mL (BSA), 0.8 uM peptide substrate, and 1 mM dithiothreitol. The Enzyme Mix contained 100 mM MOPS (pH7.5); 0.01% Tween-20; 0.1 mg/mL BSA, and either 0.8 nM EGFR, 10 nM ErbB2, or 1 nM ErbB4. The Enzyme Mix was added to the compound plates and the plates were incubated at 20° C. for 1 hr. The reactions were then started by adding the Substrate Mix.
(§4) After initiating the reaction with the method described above, the reactions were allowed to proceed for 90 minutes at 20° C. The reactions were then terminated by the addition of 20 μL 100 mM EDTA to each well. 40 μL/well of HTRF detection mix were added to the assay plates. The final concentrations of the detection reagents were: 100 mM HEPES (pH7.5), 0.1 mg/mL BSA, 15 nM streptavidin-labeled allophycocyanin (PerkinElmer), and 1 nM europium-labeled anti-phosphotyrosine antibody (Perkin Elmer). Assay plates were left unsealed and were counted in a Wallac Multilabel Counter 1420 (PerkinElmer).
(§5) Compounds under analysis were dissolved in dimethylsulfoxide (DMSO) to 1.0 mM and serially diluted 1 to 3 with DMSO through twelve dilutions. 1 μL of each concentration was transferred to the corresponding well of an assay plate. This creates a final compound concentration range from 0.00027 to 47.6 μM.
(§6) The data for dose responses were plotted as % Inhibition calculated with the data reduction formula 100*(1-(U1−C2)/(C1−C2)) versus concentration of compound where U1 is the unknown value, C1 is the average control value obtained for 4.76% DMSO, and C2 is the average control value obtained for 0.035 M EDTA. Data were fitted with a curve described by:
(§7) where Vmax is the upper asymptote, Y2 is the Y intercept, and K is the IC50. The results for each compound were recorded as pIC50s, calculated as follows: […]

[2] = system: SK-MEL-28 tumor cells; assay: Cell growth inhibition assay (CellTiter-Glo), SK-MEL-28; assay type: cell-based, Human; settings: Homo sapiens, SK-MEL-28, 72 h; 3 days incubation
Protocol: (§8) Human breast tumor cells (BT474) were cultured in RPMI (Mediatech […]), containing 10% FBS (JRH Biosciences 12176) and 1% penicillin-streptomycin (Invitrogen 15140). Human head and neck tumor cells (HN5) were cultured in high glucose DMEM (Mediatech 50-013-PB) containing 10% FBS and 1% penicillin-streptomycin. Human colon tumor cells (Colo205) were cultured in RPMI (Mediatech 50-020-PB) containing 10% FBS and 1% penicillin-streptomycin. Human melanoma cancer cells (SK-MEL-28) were cultured in EMEM with nonessential amino acids (Mediatech 50-011-PB) containing 10% FBS, 1% sodium pyruvate (JT Baker 3354-04), and 1% penicillin-streptomycin. Human melanoma cancer cells (A375P F11s) were cultured in RPMI (Mediatech 50-020-PB) containing 10% FBS, 1% sodium pyruvate, and 1% penicillin-streptomycin. Human colon cancer cells (HT-29) were cultured in high glucose DMEM (Mediatech 50-013-PB) containing 10% FBS and 1% penicillin-streptomycin. Human melanoma cancer cells (SK-MEL-3) were cultured in McCoy's 5A (50-025-PB) containing 15% FBS, and 1% penicillin-streptomycin. All cell lines were maintained at 37° C. in a humidified 5% CO2, 95% air incubator. Cells were harvested using trypsin/EDTA (Invitrogen 25200), counted using a haemocytometer, and plated. For 96-well assays (using white full-area NUNC plates cat. #136102), cells were plated in 105 μL at the following densities (cells/well): HNS, 500; Colo 205, 500; SK-MEL-28, 500; A375P F11s, 500; HT-29, 500; SK-MEL-3, 500; and BT474, 3000. For 384-well assays (white full-area NUNC plates, cat. #781080), cells were plated in 48 μL at the following densities (cells/well): HNS, 500; Colo205, 500; SK-MEL-28, 500; A375P F11s, 500; HT-29, 500; SK-MEL-3, 500; and BT474, 2000.
(§9) The next day, compounds were diluted as follow: For 96-well assays, 13.5 μL of compound in DMSO were diluted using nine (9) serial 1:3 dilutions of 4.5 μL in 9 of DMSO. Medium (270 μL/well of RPMI with 10% FBS and 1% penicillin-streptomycin) was added to the plates. Aliquots (7 μL) were added to cells in the final assay giving a final DMSO concentration of 0.2%. For 384-well assays, 15 μL of compound in DMSO were diluted using nine (9) serial 1:3 dilutions of 5 μL in 10 μL of DMSO, followed by a further dilution of 5 μL of compound with 95 μL of medium, of which 2 μL were added to cells in the final assay giving a final DMSO concentration of 0.2%. Cells were incubated at 37° C., 5% CO2 for 3 days.
(§10) Total ATP was measured (as a surrogate estimate of cell number) using CellTiter-Glo® reagent (Promega G7571). Briefly, plates were removed from the incubator and allowed to equilibrate to room temperature for 30 minutes. CellTiter-Glo® (25 μL or 55 μL for 384-well or 96-well assays, respectively) reagent was added to each well and plates were shaken on an orbital plate shaker for 2 minutes. Plates were incubated without shaking for a further 30 minutes and read on an LJL Analyst GT reader in luminometer mode with an integration time of 0.5 seconds per well. Percent inhibition of cell growth was calculated relative to DMSO vehicle-treated control wells. Concentration of compound required to give 50% inhibition of vehicle-treated control cell growth (IC50) was interpolated using a 4-parameter fit for determining IC50 using the following equation: Y=A +((B−A)/(1+((C/X)̂D))) where […].

[3] = molecular target: B-Raf (Homo sapiens, UniProt P15056); assay: B-Raf Accelerated MEK ATPase assay (BRAMA), Method A or B; assay type: biochemical; settings: Method B: final MEK 150 nM, single end point read
Protocol: Compounds of the present invention were tested for B-Raf protein serine kinase inhibitory activity in a B-Raf Accelerated MEK ATPase assay (BRAMA). The BRAMA assay is a high sensitivity assay which measures an intrinsic MEK-mediated ATP hydrolysis uncoupled from downstream ERK phosphorylation by coupling the formation of ADP to NADH oxidation through the enzymes pyruvate kinase and lactate dehydrogenase. When ADP production is initiated by addition of catalytic amounts of an activated Raf enzyme and non-phosphorylated MEK, one observes robust ADP production concomitant with Raf-mediated phosphorylation of MEK.
Method A: Specific details of the assay are disclosed in: C. Rominger, M. Schaber, E. May. Assay for B-Raf Activity Based on Intrinsic MEK ATPase Activity. Statutory Invention Registration 11/084,993 (March, 2005). Method B: The method is the same as method A, but includes the following changes: 1) the assay was performed with a final MEK concentration of 150 nM and 2) the assay was read as single end point instead of a kinetic read.

[4] = system: Colo205 tumor cells; assay: Cell growth inhibition assay (CellTiter-Glo), Colo205; assay type: cell-based, Human; settings: Homo sapiens, COLO 205, 72 h; 3 days incubation
Protocol: as §8, §9, §10

[5] = molecular target: T2, EGFR (Homo sapiens, UniProt P00533); assay: EGFR substrate phosphorylation assay (HTRF); assay type: biochemical
T2 construct: made in house; host or cells: baculovirus expression system
Protocol: as §1, §2, §3, §4, §5, §6, §7

B-Raf, sequence (P15056 whole entry): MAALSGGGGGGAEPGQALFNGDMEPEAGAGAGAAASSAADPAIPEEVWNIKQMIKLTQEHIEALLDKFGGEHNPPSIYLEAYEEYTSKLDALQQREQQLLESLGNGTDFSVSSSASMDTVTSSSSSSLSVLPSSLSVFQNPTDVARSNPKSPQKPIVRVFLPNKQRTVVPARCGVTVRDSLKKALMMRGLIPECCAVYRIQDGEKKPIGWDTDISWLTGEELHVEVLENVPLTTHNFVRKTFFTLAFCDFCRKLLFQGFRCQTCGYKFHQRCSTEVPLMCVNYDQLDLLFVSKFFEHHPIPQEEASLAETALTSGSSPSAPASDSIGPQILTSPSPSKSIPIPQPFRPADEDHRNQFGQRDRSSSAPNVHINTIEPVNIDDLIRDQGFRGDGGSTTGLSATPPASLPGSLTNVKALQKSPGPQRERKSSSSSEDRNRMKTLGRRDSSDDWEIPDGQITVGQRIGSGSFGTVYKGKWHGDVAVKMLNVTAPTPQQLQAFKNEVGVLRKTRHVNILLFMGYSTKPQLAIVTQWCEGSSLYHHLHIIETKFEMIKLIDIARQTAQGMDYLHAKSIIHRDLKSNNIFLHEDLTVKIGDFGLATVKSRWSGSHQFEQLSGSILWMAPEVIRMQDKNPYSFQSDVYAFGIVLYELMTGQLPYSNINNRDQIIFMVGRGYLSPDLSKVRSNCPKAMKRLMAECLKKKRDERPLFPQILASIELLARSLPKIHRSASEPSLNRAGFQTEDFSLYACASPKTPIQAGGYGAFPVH
T2 sequence (P00533 25-1210): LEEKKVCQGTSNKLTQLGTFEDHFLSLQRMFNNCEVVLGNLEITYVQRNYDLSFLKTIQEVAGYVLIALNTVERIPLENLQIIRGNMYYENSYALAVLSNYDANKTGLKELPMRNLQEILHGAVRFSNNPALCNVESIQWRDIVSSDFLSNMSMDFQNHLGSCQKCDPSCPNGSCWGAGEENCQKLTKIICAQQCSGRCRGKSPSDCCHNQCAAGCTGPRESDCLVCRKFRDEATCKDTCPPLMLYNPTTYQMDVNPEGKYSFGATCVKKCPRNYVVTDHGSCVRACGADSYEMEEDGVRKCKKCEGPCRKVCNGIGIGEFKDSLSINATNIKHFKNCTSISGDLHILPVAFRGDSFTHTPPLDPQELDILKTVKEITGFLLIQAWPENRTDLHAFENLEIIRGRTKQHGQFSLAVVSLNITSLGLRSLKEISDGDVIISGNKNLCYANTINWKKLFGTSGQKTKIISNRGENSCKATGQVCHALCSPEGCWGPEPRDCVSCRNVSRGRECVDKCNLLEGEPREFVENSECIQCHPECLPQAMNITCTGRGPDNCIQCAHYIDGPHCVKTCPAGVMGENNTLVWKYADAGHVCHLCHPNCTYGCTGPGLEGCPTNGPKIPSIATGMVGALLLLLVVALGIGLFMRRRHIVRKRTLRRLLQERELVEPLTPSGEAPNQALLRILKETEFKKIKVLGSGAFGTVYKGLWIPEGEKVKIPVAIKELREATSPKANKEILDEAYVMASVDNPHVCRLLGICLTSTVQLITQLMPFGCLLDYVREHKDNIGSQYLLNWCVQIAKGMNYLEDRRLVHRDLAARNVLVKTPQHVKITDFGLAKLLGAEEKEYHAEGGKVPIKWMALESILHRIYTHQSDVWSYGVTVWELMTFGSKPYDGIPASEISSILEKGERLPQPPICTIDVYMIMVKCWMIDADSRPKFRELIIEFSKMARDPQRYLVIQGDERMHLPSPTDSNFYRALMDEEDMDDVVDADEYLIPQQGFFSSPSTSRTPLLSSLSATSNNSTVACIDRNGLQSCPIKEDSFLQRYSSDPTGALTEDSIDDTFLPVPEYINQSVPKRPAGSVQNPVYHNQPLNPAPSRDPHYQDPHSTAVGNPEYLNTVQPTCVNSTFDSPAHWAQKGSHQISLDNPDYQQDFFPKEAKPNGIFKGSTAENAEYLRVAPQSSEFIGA
T1 sequence (P04626 23-1255): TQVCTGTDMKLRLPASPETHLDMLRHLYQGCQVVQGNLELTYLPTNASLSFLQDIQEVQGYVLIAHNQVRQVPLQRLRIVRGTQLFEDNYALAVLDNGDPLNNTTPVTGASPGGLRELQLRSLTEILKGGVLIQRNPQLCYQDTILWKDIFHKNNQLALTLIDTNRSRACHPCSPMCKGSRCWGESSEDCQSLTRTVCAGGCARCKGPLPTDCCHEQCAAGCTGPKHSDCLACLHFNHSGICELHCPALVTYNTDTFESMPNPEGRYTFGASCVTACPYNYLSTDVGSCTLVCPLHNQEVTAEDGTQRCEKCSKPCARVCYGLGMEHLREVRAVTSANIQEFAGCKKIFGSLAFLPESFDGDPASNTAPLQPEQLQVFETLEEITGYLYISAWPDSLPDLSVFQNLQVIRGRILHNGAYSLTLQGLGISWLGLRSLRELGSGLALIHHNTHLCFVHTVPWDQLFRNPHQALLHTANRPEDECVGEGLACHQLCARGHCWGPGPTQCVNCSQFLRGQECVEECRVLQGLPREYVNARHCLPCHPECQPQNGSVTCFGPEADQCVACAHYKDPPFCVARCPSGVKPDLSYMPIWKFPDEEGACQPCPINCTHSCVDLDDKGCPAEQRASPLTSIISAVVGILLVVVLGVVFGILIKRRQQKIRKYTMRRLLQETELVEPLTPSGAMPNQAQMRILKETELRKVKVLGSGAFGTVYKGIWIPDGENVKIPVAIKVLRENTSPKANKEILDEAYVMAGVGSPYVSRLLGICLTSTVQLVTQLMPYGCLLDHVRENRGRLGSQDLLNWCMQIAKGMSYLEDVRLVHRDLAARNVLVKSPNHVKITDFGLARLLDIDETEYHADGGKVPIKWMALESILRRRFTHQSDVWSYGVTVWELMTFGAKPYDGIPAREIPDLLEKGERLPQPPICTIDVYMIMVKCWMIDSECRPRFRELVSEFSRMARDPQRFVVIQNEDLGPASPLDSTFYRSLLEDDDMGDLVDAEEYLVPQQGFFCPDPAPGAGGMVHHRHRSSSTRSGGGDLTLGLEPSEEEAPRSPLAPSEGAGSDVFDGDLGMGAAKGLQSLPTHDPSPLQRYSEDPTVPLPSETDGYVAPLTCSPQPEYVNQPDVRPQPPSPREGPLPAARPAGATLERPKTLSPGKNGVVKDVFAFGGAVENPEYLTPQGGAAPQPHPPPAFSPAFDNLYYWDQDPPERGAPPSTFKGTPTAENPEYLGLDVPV

Row | Structure (SMILES) | IC50 [1] | IC50 [2] | IC50 [3] | IC50 [4] | IC50 [5]
1 | Nc1nc(-c2ccc(F)c(NS(=O)(=O)c3c(F)cccc3F)c2)c(-c2ccnc(Nc3ccc(N4CCOCC4)nc3)n2)s1 [Example 64] | < 100 nM | > 1000 nM | < 100 nM | > 1000 nM | 100 to 1000 nM
2 | CCc1nc(-c2ccc(F)c(NS(=O)(=O)c3ccccc3)c2)c(-c2ccnc(Nc3ccc(N4CCN(CCS(C)(=O)=O)CC4)c(F)c3)n2)s1 [Example 67] | 100 to 1000 nM | 100 to 1000 nM | 100 to 1000 nM | 100 to 1000 nM | > 1000 nM
3 | CCc1nc(-c2cccc(CNS(=O)(=O)c3ccccc3)c2)c(-c2ccnc(Nc3ccc(N4CCN(C(C)=O)CC4)nc3)n2)s1 [Example 68] | 100 to 1000 nM | > 1000 nM | 100 to 1000 nM | > 1000 nM | 100 to 1000 nM
4 | CCc1nc(-c2ccc(F)c(NS(=O)(=O)c3ccccc3)c2)c(-c2ccnc(Nc3ccc(N4CCN(C(C)C)CC4)cc3OC)n2)s1 [Example 69] | 100 to 1000 nM | > 1000 nM | 100 to 1000 nM | > 1000 nM | 100 to 1000 nM
5 | COc1cc(C)ccc1S(=O)(=O)Nc1cccc(-c2nc(C(C)C)sc2-c2ccnc(Nc3ccc(N4CCN(C(C)=O)CC4)nc3)n2)c1 [Example 76] | > 1000 nM | > 1000 nM | 100 to 1000 nM | > 1000 nM | > 1000 nM
6 | CC(C)c1nc(-c2cccc(NS(=O)(=O)Cc3ccccc3)c2)c(-c2ccnc(Nc3ccc(N4CCOCC4)c(F)c3)n2)s1 [Example 86] | > 1000 nM | > 1000 nM | 100 to 1000 nM | > 1000 nM | > 1000 nM
7 | COc1c(Nc2nccc(-c3sc(C(C)C)nc3-c3cccc(NS(=O)(=O)c4c(F)cccc4F)c3)n2)ccc(N2CCN(CCS(C)(=O)=O)CC2)c1C [Example 90] | > 1000 nM | 100 to 1000 nM | < 100 nM | 100 to 1000 nM | > 1000 nM
8 | CC(C)(F)c1nc(-c2ccc(F)c(NS(=O)(=O)c3c(F)cccc3F)c2)c(-c2ccnc(Nc3ccc(N4CCOCC4)nc3)n2)s1 [Example 103] | > 1000 nM | 100 to 1000 nM | 100 to 1000 nM | 100 to 1000 nM | > 1000 nM
